According to US20240425464A1, “Substituted Monohydrazides as Potent Antifungal Agents” (University of Kentucky Research Foundation, priority 2023, published 2024):
In brackets after ≈: the same amount, converted by molar mass. Read-outs that look alike come from different tables or passages of the source.

How the values were obtained:
Experiment in all cases: MIC determination by in vitro antifungal assay
[1] = test system: C. albicans ATCC 64124 (B); type: cell-based, Candida albicans
Procedure: (§1) 10 mg/mL stock solutions of compounds 1a-9j were prepared in dimethyl sulfoxide (DMSO) and were stored at −20° C. in the dark. The antifungal agent amphotericin B (AmB) was purchased from VWR (Radnor PA, USA). AmB was dissolved in DMSO at a final concentration of 5 mg/mL and was stored at −20° C., protected from light. Candida albicans American Type Culture Collection (ATCC) 10231 (strain A), C. albicans ATCC 64124 (B), and C. albicans ATCC MYA-2876 (C) were obtained from Utah State University. C. albicans ATCC 90819 (D), C. albicans ATCC MYA-2310 (E), C. albicans ATCC MYA-1237 (F), C. albicans ATCC MYA-1003 (G), Candida glabrata ATCC 2001 (H), Candida krusei ATCC 6258 (I), Candida parapsilosis ATCC 22019 (J), Cryptococcus neoformans ATCC MYA-895 (M), Aspergillus terreus ATCC MYA-3633 (N), and Aspergillus flavus ATCC MYA-3631 (0) were obtained from the American Type Culture Collection (ATCC; Manassas, VA, USA). Aspergillus nidulans ATCC 38163 (P) was obtained from University of Kentucky. Clinically derived Aspergillus fumigatus NRRL 163 (Q), A. fumigatus NRRL 5109 (R), and A. fumigatus NRRL 6113 (S) were obtained from Northern Regional Research Laboratory (NRRL). Candida auris 384 (K), C. auris 390 (L), and fungal strains 381-400 (including 10 C. auris (AR Bank #381-390), 3 Candida duobushaemulonii (AR Bank #391, AR Bank #392, and AR Bank #394), 2 Candida haemulonii (AR Bank #393 and AR Bank #395), 1 Kodameae ohmeri (AR Bank #396), 1 C. krusei (AR Bank #397), 1 Candida lusitaniae (AR Bank #398), and 2 Saccharomyces cerevisiae strains (AR Bank #399 and AR Bank #400)) were part of a larger fungal library from the AR Bank maintained by the Centers for Disease Control and Prevention (CDC; Atlanta, GA, USA). Filamentous fungi and yeasts were cultivated at 35° C. in RPMI 1640 medium (with L-glutamine, without sodium bicarbonate, Sigma-Aldrich, St. Louis, MO) buffered to a pH of 7.0 with 0.165 M morpholinepropanesulfonic acid (MOPS) buffer (Sigma-Aldrich). For cytotoxicity assays, HepG2 and the mouse macrophage cell line J774A.1 were obtained from University of Kentucky. The human embryonic kidney cell line, HEK-293, was bought from the ATCC. Mammalian cells were grown in Dulbecco's Modified Eagle's Medium (DMEM) (from VWR) with 10% fetal bovine serum (FBS) (from VWR) and 1% Pen/Strep (from ATCC). Cell lines were cultured at 37° C. with 5% CO2 and passaged by trypsinization with 0.05% trypsin: 0.53 mM EDTA (from Sigma-Aldrich).
(§2) The MIC values of compounds 1a-9j against yeast cells (strains A-P and 381-400) were determined in 96-well plates as described in the CLSI documents M27-A3 and M38-A2 with minor modifications.^2 A single colony of freshly prepared yeast cells was used to inoculate 5 mL of yeast extract peptone dextrose (YPD) broth prior to incubation overnight with shaking at 200 rpm at 35° C. From the actively growing yeast culture, 100 µL were then transferred to 900 μL of RPMI 1640 medium and re-adjusted to achieve OD600 of 0.12 (˜1×10^6 CFU/mL). The cell suspension was further diluted to achieve 1:100 in RPMI 1640 medium. 100 μL of cells were added to the wells of a 96-well microtiter plates that contained 100 µL of the compound solution to obtain concentrations of 0.06-31.3 μg/mL of compounds 1a-9j or AmB prior to incubation for 48 h at 35° C. […]

[2] = test system: C. albicans ATCC 90819 (D); type: cell-based, Candida albicans
Procedure: as §1, §2

[3] = test system: C. albicans ATCC MYA-1003 (G); type: cell-based, Candida albicans; conditions: strain G = C. albicans ATCC MYA-1063(R) (footnote), MYA-1003 in text
Procedure: as §1, §2

[4] = test system: C. albicans ATCC MYA-1237 (F); type: cell-based, Candida albicans; conditions: strain F = C. albicans ATCC MYA-1237(R)
Procedure: as §1, §2

[5] = test system: C. albicans ATCC MYA-2310 (E); type: cell-based, Candida albicans; conditions: strain E = C. albicans ATCC MYA-2310
Procedure: as §1, §2

[6] = test system: C. albicans ATCC MYA-2876 (C); type: cell-based, Candida albicans; conditions: strain C = C. albicans ATCC MYA-2876(S)
Procedure: as §1, §2

[7] = test system: Candida glabrata ATCC 2001 (H); type: cell-based; conditions: ATCC 2001 in text
Procedure: as §1, §2

[8] = test system: Candida krusei ATCC 6258 (I); type: cell-based
Procedure: as §1, §2

[9] = test system: Candida parapsilosis ATCC 22019 (J); type: cell-based
Procedure: as §1, §2

[10] = strain B = C. albicans ATCC 64124
[11] = strain D = C. albicans ATCC 90819(R)
[12] = strain H = C. glabrata ATCC 2004 (footnote)
[13] = strain J = C. parapsilosis ATCC 22019
[14] = Candida albicans, ATCC64124, strain B = C. albicans ATCC 64124, read-out: MIC
[15] = Candida albicans, ATCC90819, strain D = C. albicans ATCC 90819(R), read-out: MIC
[16] = Candida albicans, read-out: MIC
[17] = Nakaseomyces glabratus, ATCC 2001 / ATCC 2004, strain H = C. glabrata ATCC 2004 (footnote), read-out: MIC
[18] = Pichia kudriavzevii, ATCC6258, strain I = C. krusei ATCC 6258, read-out: MIC
[19] = Lodderomyces parapsilosis, ATCC22019, strain J = C. parapsilosis ATCC 22019, read-out: MIC

SMILES	MIC [1, 10]	MIC [2, 11]	MIC [3]	MIC [4]	MIC [5]	MIC [6]	MIC [7, 12]	MIC ([8]; strain I = C. krusei ATCC 6258)	MIC [9, 13]	MIC [1, 14]	MIC [2, 15]	MIC [3, 16]	MIC [4, 16]	MIC [5, 16]	MIC [6, 16]	MIC [7, 17]	MIC [8, 18]	MIC [9, 19]
O=C(NNc1cccc(F)c1)c1cccc(F)n1 [Compound 5a]	0.49 μg/mL^−1	7.8 μg/mL^−1	1.95 μg/mL^−1	1.95 μg/mL^−1	1.95 μg/mL^−1	3.9 μg/mL^−1	31.3 μg/mL^−1	0.24 μg/mL^−1	7.8 μg/mL^−1									
COc1cccc(NNC(=O)c2ccc(F)cc2F)c1 [Compound 1c]										1.95 µg/mL (≈ 7.01 µM)	3.9 µg/mL (≈ 14 µM)	1.95 µg/mL (≈ 7.01 µM)	3.9 µg/mL (≈ 14 µM)	3.9 µg/mL (≈ 14 µM)	3.9 µg/mL (≈ 14 µM)	31.3 µg/mL (≈ 112 µM)	0.98 µg/mL (≈ 3.52 µM)	7.8 µg/mL (≈ 28 µM)
O=C(NNc1ccc(F)cc1F)c1ccc(Br)cn1 [Compound 4g]										15.6 µg/mL (≈ 47.5 µM)	3.9 µg/mL (≈ 11.9 µM)	15.6 µg/mL (≈ 47.5 µM)	1.95 µg/mL (≈ 5.94 µM)	> 31.3 µg/mL	0.98 µg/mL (≈ 2.99 µM)	7.8 µg/mL (≈ 23.8 µM)	0.49 µg/mL (≈ 1.49 µM)	3.9 µg/mL (≈ 11.9 µM)
COc1ccc(NNC(=O)c2ccc(F)cn2)cc1 [Compound 3f]	0.98 μg/mL^−1	0.98 μg/mL^−1	0.49 μg/mL^−1	0.49 μg/mL^−1	0.98 μg/mL^−1	0.98 μg/mL^−1	1.95 μg/mL^−1	0.24 μg/mL^−1	3.9 μg/mL^−1									
O=C(NNc1cc(F)ccc1F)c1ccccn1 [Compound 2h]										1.95 µg/mL (≈ 7.82 µM)	0.98 µg/mL (≈ 3.93 µM)	0.98 µg/mL (≈ 3.93 µM)	1.95 µg/mL (≈ 7.82 µM)	1.95 µg/mL (≈ 7.82 µM)	3.9 µg/mL (≈ 15.6 µM)	3.9 µg/mL (≈ 15.6 µM)	0.24 µg/mL (≈ 0.963 µM)	3.9 µg/mL (≈ 15.6 µM)
O=C(NNc1ccc(Cl)cc1)c1ccc(F)cn1 [Compound 3e]	1.95 μg/mL^−1	3.9 μg/mL^−1	0.98 μg/mL^−1	1.95 μg/mL^−1	1.95 μg/mL^−1	1.95 μg/mL^−1	7.8 μg/mL^−1	0.98 μg/mL^−1	31.3 μg/mL^−1									
O=C(NNc1ccc(F)cc1F)c1ccccn1 [Compound 2g]										1.95 µg/mL (≈ 7.82 µM)	0.98 µg/mL (≈ 3.93 µM)	0.49 µg/mL (≈ 1.97 µM)	0.49 µg/mL (≈ 1.97 µM)	31.3 µg/mL (≈ 126 µM)	0.98 µg/mL (≈ 3.93 µM)	0.98 µg/mL (≈ 3.93 µM)	0.49 µg/mL (≈ 1.97 µM)	1.95 µg/mL (≈ 7.82 µM)
O=C(NNc1cc(F)ccc1F)c1ccc(F)cc1F [Compound 1h]										15.6 µg/mL (≈ 54.9 µM)	31.3 µg/mL (≈ 110 µM)	31.3 µg/mL (≈ 110 µM)	31.3 µg/mL (≈ 110 µM)	31.3 µg/mL (≈ 110 µM)	31.3 µg/mL (≈ 110 µM)	> 31.3 µg/mL	3.9 µg/mL (≈ 13.7 µM)	31.3 µg/mL (≈ 110 µM)
O=C(NNc1cccc(F)c1)c1ccc(F)cc1F [Compound 1a]	1.95 μg/mL^−1	7.8 μg/mL^−1	1.95 μg/mL^−1	0.98 μg/mL^−1	3.9 μg/mL^−1	3.9 μg/mL^−1	7.8 μg/mL^−1	1.95 μg/mL^−1	3.9 μg/mL^−1									
